Experimental data reported in US20230219886A1, “NOVEL SELENO-NSAID ANALOGS AND USES THEREOF” (THE PENN STATE RESEARCH FOUNDATION, priority 2020, published 2023).
Read-outs that look alike come from different tables or passages of the source.

Tests used:
HT-29 (CRC) = assay: MTT cell viability assay, HT-29; conditions: for IC50 / viability at 5 µM / viability at 25 µM / viability at 50 µM / GI50: Homo sapiens; for viability at 5 µM / viability at 25 µM / viability at 50 µM: read-out: cell viability
Experimental: (§1) Cell Culture Conditions. The cell lines were obtained from the American Type Culture Collection (ATCC). PANC-1 and Caco-2 cell lines were maintained in DMEM medium (Gibco); HT-29, HCT-116 and RKO cells were maintained in McCoy's 5A medium (Gibco); and DU-145 and H1299 cells were maintained in RPMI 1640 medium (Gibco), supplemented with 10% fetal bovine serum (FBS; Gibco) and 1% antibiotics (10.00 units/mL penicillin and 10.00 mg/mL streptomycin; Gibco). Cells were preserved in tissue culture flasks at 37° C. and 5% CO2. Culture medium was replaced every three days.
(§2) Cell Viability Assay. The effect of each compound on cell viability was tested using the MTT assay (81). Briefly, 9000 cells/well were grown in 96-well plates for 12 h. Then these cells were incubated with either DMSO (control) or nine different concentration between 0.01-50 μM of the test compounds for 24, 48, and 72 h. Three hours before the termination point, 20 μL of MTT were added to measure cellular viability. The resultant formazan crystals were dissolved in 50 μL of DMSO, and absorbance was measured at 570 nm and 630 nm wavelengths. IC50, GI50, TGI and LC50 values were calculated using OriginPro 8.5.1.
(§3) Evaluation of the antiproliferative activities of the novel molecules. […] These four cell lines were treated with each compound at three concentrations (5, 25 and 50 μM) for 48 h.

HCT-116 CRC cells = assay: MTT cell viability assay, HCT-116; type: cell-based, human; conditions: Homo sapiens
Experimental: as §1, §2

RKO CRC cells = assay: cells; conditions: Homo sapiens
Experimental: as §1, §2

CACO-2 CRC cells = assay: cells; conditions: for IC50: Homo sapiens
Experimental: as §1, §2

[1] = system: PANC-1 (pancreatic carcinoma); assay: MTT cell viability assay, Panc-1; conditions: Homo sapiens, PANC-1, 48 h, read-out: cell viability
Experimental: as §1, §2, §3

H1299 (lung carcinoma) = assay: MTT cell viability assay, H1299; conditions: Homo sapiens, NCI-H1299, 48 h, read-out: cell viability
Experimental: as §1, §2, §3

[2] = system: DU-145 (prostate carcinoma); assay: MTT cell viability assay, DU-145; conditions: Homo sapiens, DU-145, 48 h, read-out: cell viability
Experimental: as §1, §2, §3

Structure (SMILES)	IC50 (HT-29 (CRC); HT-29, 24 h) [µM]	IC50 (HT-29 (CRC); HT-29, 48 h) [µM]	IC50 (HT-29 (CRC); HT-29, 72 h) [µM]	IC50 (RKO CRC cells; 24 h) [µM]	IC50 (RKO CRC cells; 48 h) [µM]	IC50 (RKO CRC cells; 72 h) [µM]	IC50 (CACO-2 CRC cells; Caco-2, 24 h) [µM]	IC50 (CACO-2 CRC cells; Caco-2, 48 h) [µM]	IC50 (CACO-2 CRC cells; Caco-2, 72 h) [µM]	viability at 5 µM (HT-29 (CRC); HT-29, 48 h) [%]	viability at 25 µM (HT-29 (CRC); HT-29, 48 h) [%]	viability at 50 µM (HT-29 (CRC); HT-29, 48 h) [%]	viability at 5 µM [1] [%]	viability at 25 µM [1] [%]	viability at 50 µM [1] [%]	viability at 5 µM (H1299 (lung carcinoma)) [%]	viability at 25 µM (H1299 (lung carcinoma)) [%]	viability at 50 µM (H1299 (lung carcinoma)) [%]	viability at 5 µM [2] [%]	viability at 25 µM [2] [%]	also measured
CC[Se]C(=O)Cc1c(C)n(C(=O)c2ccc(Cl)cc2)c2ccc(OC)cc12 [Compound 5b, Se-ethyl 2-(1-(4-chlorobenzoyl)-5-methoxy-2-methyl-1H-indol-3-yl)ethane-selenoate]	> 50	4.9 ± 0.3	4.9 ± 0.1	> 50	30.8 ± 3.5	33.3 ± 16.9	> 50	> 50	> 50	–	–	–	–	–	–	–	–	–	–	–	IC50 (HCT-116 CRC cells; HCT-116, 24 h, read-out: IC50): > 50 µM; IC50 (HCT-116 CRC cells; HCT-116, 48 h, read-out: IC50): 6.3 ± 1.6 µM; IC50 (HCT-116 CRC cells; HCT-116, 72 h, read-out: IC50): 8.2 ± 1.7 µM; effect on CACO-2 viability (CACO-2 CRC cells): no effect
CC[Se]C(=O)c1ccccc1OC(C)=O [Compound 1b, 2-((ethylselanyl)carbonyl)phenyl acetate]	> 50	4.2 ± 0.4	4.2 ± 0.9	> 50	> 50	> 50	> 50	> 50	> 50	–	–	–	–	–	–	–	–	–	–	–	IC50 (HCT-116 CRC cells; HCT-116, 24 h, read-out: IC50): > 50 µM; IC50 (HCT-116 CRC cells; HCT-116, 48 h, read-out: IC50): 13.2 ± 2.6 µM; IC50 (HCT-116 CRC cells; HCT-116, 72 h, read-out: IC50): 6.8 ± 4.2 µM; effect on CACO-2 viability (CACO-2 CRC cells): no effect
CC1=C(CC(=O)[Se]Cc2ccccc2)c2cc(F)ccc2/C1=C\c1ccc([S+](C)[O-])cc1 (stereo not drawn) [Compound 6c, Se-benzyl (Z)-2-(5-fluoro-2-methyl-1-(4-(methylsulfinyl)benzylidene)-1H-inden-3-yl)ethaneselenoate]	> 50	5.1 ± 0.1	5.2 ± 0.2	> 50	> 50	35.8 ± 5.9	> 50	11.4 ± 1.6	14.2 ± 3.9	–	–	–	–	–	–	–	–	–	–	–	IC50 (HCT-116 CRC cells; HCT-116, 24 h): > 50 µM; IC50 (HCT-116 CRC cells; HCT-116, 48 h): 7.8 ± 1.8 µM; IC50 (HCT-116 CRC cells; HCT-116, 72 h): 7 ± 0.8 µM
C[Se]C(=O)c1cc(-c2ccc(F)cc2F)ccc1O [Compound 2a, Se-methyl 2′,4′-difluoro-4-hydroxy-[1,1′-biphenyl]-3-carboselenoate]	–	–	–	–	–	–	–	–	–	46.6 ± 11.9	23.5 ± 7.2	28.4 ± 2.7	53.5 ± 9.7	38.5 ± 8.1	39.1 ± 11.1	96.8 ± 19.8	80 ± 10.7	79.9 ± 9	53.9 ± 14.1	40.7 ± 8.3	viability at 50 µM [2]: 39.5 ± 2.7%
CC[Se]C(=O)CC1=C(C)/C(=C/c2ccc([S+](C)[O-])cc2)c2ccc(F)cc21 (stereo not drawn) [Compound 6b, Se-ethyl (Z)-2-(5-fluoro-2-methyl-1-(4-(methylsulfinyl)benzylidene)-1H-inden-3-yl)ethaneselenoate]	10.9 ± 1.4	4.9 ± 0.2	5 ± 0.1	> 50	41.8 ± 13.8	12.4 ± 0.5	> 50	> 50	> 50	–	–	–	–	–	–	–	–	–	–	–	IC50 (HCT-116 CRC cells; HCT-116, 24 h, read-out: IC50): > 50 µM; IC50 (HCT-116 CRC cells; HCT-116, 48 h, read-out: IC50): 6.2 ± 0.9 µM; IC50 (HCT-116 CRC cells; HCT-116, 72 h, read-out: IC50): 7.2 ± 1 µM; effect on CACO-2 viability (CACO-2 CRC cells): no effect
CC(=O)Oc1ccccc1C(=O)O [ASA, aspirin, reference compound]	> 50	> 50	> 50	> 50	> 50	> 50	> 50	> 50	> 50	73.1 ± 13	57.2 ± 11.3	35.5 ± 7.7	86.7 ± 5.4	63.8 ± 3.1	68.6 ± 5.1	44.1 ± 4.4	51.1 ± 1.6	58.3 ± 3.6	89.8 ± 11	85.3 ± 25.1	TGI (HT-29 (CRC); HT-29, 24 h): >50 µM; TGI (HT-29 (CRC); HT-29, 48 h): >50 µM; TGI (HT-29 (CRC); HT-29, 72 h): >50 µM; GI50 (HT-29 (CRC); HT-29, 24 h): > 50 µM; GI50 (HT-29 (CRC); HT-29, 48 h): > 50 µM; GI50 (HT-29 (CRC); HT-29, 72 h): > 50 µM; IC50 (HCT-116 CRC cells; HCT-116, 24 h, read-out: IC50): > 50 µM; IC50 (HCT-116 CRC cells; HCT-116, 48 h, read-out: IC50): > 50 µM; IC50 (HCT-116 CRC cells; HCT-116, 72 h, read-out: IC50): > 50 µM; viability at 50 µM [2]: 90.9 ± 24.6%
CC(=O)Oc1ccccc1C(=O)[Se]Cc1ccccc1 [Compound 1c, 2-((benzylselanyl)carbonyl)phenyl acetate]	> 50	4.8 ± 0.2	4.8 ± 0.1	> 50	10.4 ± 0.1	5 ± 0.1	> 50	> 50	11.8 ± 5.9	–	–	–	–	–	–	–	–	–	–	–	IC50 (HCT-116 CRC cells; HCT-116, 24 h): > 50 µM; IC50 (HCT-116 CRC cells; HCT-116, 48 h): 8 ± 2.1 µM; IC50 (HCT-116 CRC cells; HCT-116, 72 h): 8.2 ± 2.2 µM
CC1=C(CC(=O)O)c2cc(F)ccc2/C1=C\c1ccc([S+](C)[O-])cc1 (stereo not drawn) [Sulin, sulindac, reference compound]	> 50	> 50	> 50	> 50	> 50	> 50	> 50	> 50	> 50	99.1 ± 2.4	97.3 ± 2.1	98.6 ± 3.1	88 ± 22.5	90.6 ± 28.9	84.5 ± 32.7	87.5 ± 2.5	72.5 ± 2.7	84.9 ± 12.1	82.2 ± 1.9	83.2 ± 7.2	TGI (HT-29 (CRC); HT-29, 24 h): >50 µM; TGI (HT-29 (CRC); HT-29, 48 h): >50 µM; TGI (HT-29 (CRC); HT-29, 72 h): >50 µM; GI50 (HT-29 (CRC); HT-29, 24 h): > 50 µM; GI50 (HT-29 (CRC); HT-29, 48 h): > 50 µM; GI50 (HT-29 (CRC); HT-29, 72 h): > 50 µM; IC50 (HCT-116 CRC cells; HCT-116, 24 h, read-out: IC50): > 50 µM; IC50 (HCT-116 CRC cells; HCT-116, 48 h, read-out: IC50): > 50 µM; IC50 (HCT-116 CRC cells; HCT-116, 72 h, read-out: IC50): > 50 µM; viability at 50 µM [2]: 85.5 ± 3.7%
COc1ccc2cc([C@H](C)C(=O)[Se]C)ccc2c1 [Compound 3a, Se-methyl (S)-2-(6-methoxynaphthalen-2-yl)propaneselenoate]	–	–	–	–	–	–	–	–	–	52.2 ± 30.9	41.8 ± 26.4	46.4 ± 24.7	46.7 ± 9.7	34.4 ± 6.3	30.5 ± 6	48.3 ± 5.4	42.4 ± 2.7	34.3 ± 1.3	56.2 ± 18.4	35 ± 16.1	viability at 50 µM [2]: 31.4 ± 23.6%
COc1ccc2c(c1)c(CC(=O)[Se]Cc1ccccc1)c(C)n2C(=O)c1ccc(Cl)cc1 [Compound 5c, Se-benzyl 2-(1-(4-chlorobenzoyl)-5-methoxy-2-methyl-1H-indol-3-yl)ethane-selenoate]	> 50	4.2 ± 0.5	4 ± 1	> 50	26.2 ± 4.6	11.5 ± 0.9	> 50	> 50	> 50	–	–	–	–	–	–	–	–	–	–	–	IC50 (HCT-116 CRC cells; HCT-116, 24 h): > 50 µM; IC50 (HCT-116 CRC cells; HCT-116, 48 h): 14 ± 6.6 µM; IC50 (HCT-116 CRC cells; HCT-116, 72 h): 5.5 ± 1.2 µM
O=C(O)c1cc(-c2ccc(F)cc2F)ccc1O [Dfl, diflunisal, reference compound]	–	–	–	–	–	–	–	–	–	93.2 ± 5.7	82.7 ± 9.8	74.7 ± 2	77.9 ± 5.4	75.5 ± 6.9	68.5 ± 9.3	85.2 ± 3.6	94.3 ± 3.9	88.7 ± 7.8	71 ± 6.9	71.5 ± 9.1	viability at 50 µM [2]: 78.9 ± 6.4%
C[Se]C(=O)c1ccccc1Nc1cccc(C)c1C [Compound 4a, Se-methyl 2-((2,3-dimethylphenyl)amino)benzoselenoate]	–	–	–	–	–	–	–	–	–	41.6 ± 6.4	16.6 ± 4.7	22.6 ± 0.7	47.5 ± 5.9	26.3 ± 3.9	22.6 ± 3	98.7 ± 0.4	99.4 ± 0.3	100	58 ± 14.1	29.7 ± 10.9	viability at 50 µM [2]: 32 ± 6.5%
Cc1cccc(Nc2ccccc2C(=O)O)c1C [Mf, mefenamic acid, reference compound]	–	–	–	–	–	–	–	–	–	91.9 ± 4.9	75.7 ± 4.1	64.9 ± 4.5	72.4 ± 5.6	61.9 ± 10.9	65.9 ± 5.1	71.4 ± 15.5	44.9 ± 1.4	39.4 ± 1.3	100	100	viability at 50 µM [2]: 100%
